In assay [1] the target is Tyrosine-protein kinase ABL1 (Homo sapiens) (UniProt P00519). Briefly: Inhibition of human ABL1 (27 to end residues) at 10 uM using EAIYAAPFAKKK as substrate incubated for 40 mins in presence of [gamma-33ATP] by scintillation counting based radiometry assay relative to control. Details: scale not given: the % may be the effect or the level left.
For assay [2], the target named is 5'-AMP-activated protein kinase catalytic subunit alpha-2 (Homo sapiens) (UniProt P54646). Put plainly: Inhibition of recombinant full length human AMPKalpha2 assessed as residual activity at 10 uM using AMARAASAAALAR as substrate incubated for 40 mins in presence of [gamma-33ATP] by scintillation counting based radiometry assay relative to control.
For assay [3], the target named is Aurora kinase C (Homo sapiens) (UniProt Q9UQB9). Put plainly: Inhibition of recombinant human Aurora C (35 to end residues) assessed as residual activity at 10 uM using AKRRRLSSLRA as substrate incubated for 40 mins in presence of [gamma-33ATP] by scintillation counting based radiometry assay relative to control.
Assay [4] relates to Epidermal growth factor receptor (Homo sapiens), P00533 [L858R,T790M]. Briefly: Inhibition of recombinant human EGFR T790M/L858R mutant (696 to end residues) assessed as residual activity at 10 uM using poly(Glu, Tyr) 4:1 as substrate at 40 mins in presence of [gamma-33ATP] by scintillation counting based radiometry assay relative to control.
In assay [5] the test system is eIF-2-alpha kinase GCN2 (Homo sapiens), Q9P2K8 [E556G]. Briefly: Inhibition of recombinant full length human GCN2 E556G mutant assessed as residual activity at 10 uM using RSRSRSRSRSRSR as substrate at 40 mins in presence of [gamma-33ATP] by scintillation counting based radiometry assay relative to control.
Assay [6] addresses Tyrosine-protein kinase HCK (Homo sapiens) (UniProt P08631). Briefly: Inhibition of human HCK activated (230 to 497 residues) assessed as residual activity at 10 uM using GGMEDIYFEFMGGKKK as substrate after 40 mins by [gamma-33ATP] radiometric assay relative to control.
The target in assay [7] is Mitogen-activated protein kinase kinase kinase kinase 3 (Homo sapiens) (UniProt Q8IVH8). Put plainly: Inhibition of recombinant human MAP4K3 (1 to 291 residues) assessed as residual activity at 10 uM using RLGRDKYKTLRQI as substrate incubated for 40 mins in presence of [gamma-33ATP by scintillation counting based radiometry assay relative to control.
The subject of assay [8] is Hepatocyte growth factor receptor (Homo sapiens), P08581 [Y1230D]. Put plainly: Inhibition of recombinant human MET A1209G/V1290L/Y1248D mutant (974 to end residues) assessed as residual activity at 10 uM using KKKGQEEEYVFIE as substrate incubated for 40 mins in presence of [gamma-33ATP by scintillation counting based radiometry assay relative to control.
The test system of assay [9] is Hepatocyte growth factor receptor (Homo sapiens), P08581 [Y1230H]. Briefly: Inhibition of recombinant human MET A1209G/V1290L/Y1248H mutant (974 to end residues) assessed as residual activity at 10 uM using KKKGQEEEYVFIE as substrate incubated for 40 mins in presence of [gamma-33ATP by scintillation counting based radiometry assay relative to control.
For assay [10], the target named is Serine/threonine-protein kinase PAK 5 (Homo sapiens) (UniProt Q9P286). Put plainly: Inhibition of recombinant human PAK5 (425 to end residues) assessed as residual activity at 10 uM using RRRLSFAEPG as substrate measured after 40 mins in presence of [gamma33P]ATP by scintillation counting based radiometry assay relative to control.
Assay [11] has as its target Serine/threonine-protein kinase PAK 6 (Homo sapiens) (UniProt Q9NQU5). Put plainly: Inhibition of recombinant human PAK6 (382 to end residues) assessed as residual activity at 10 uM using RRRLSFAEPG as substrate measured after 40 mins in presence of [gamma33P]ATP by scintillation counting based radiometry assay relative to control.
Assay [12] addresses Serine/threonine-protein kinase PLK1 (Homo sapiens) (UniProt P53350). Briefly: Inhibition of recombinant full-length human Plk1 assessed as residual activity at 10 uM using casein as substrate incubated for 40 mins in presence of [gamma33P]ATP by scintillation counting based radiometry assay relative to control.
Assay [13] concerns Mitogen-activated protein kinase 14 (Homo sapiens), Q16539 [T106M]. Briefly: Inhibition of recombinant human full length SAPK2a T106M mutant assessed as residual activity at 10 uM using myelin basic protein as substrate incubated for 40 mins in presence of [gamma33P]ATP by scintillation counting based radiometry assay relative to control.
The target of assay [14] is Tyrosine-protein kinase Srms (Homo sapiens) (UniProt Q9H3Y6). Briefly: Inhibition of recombinant human SRMS assessed as residual activity at 10 uM presence of [gamma33P]ATP by scintillation counting based radiometry assay relative to control.
Assay [15] deals with Serine/threonine-protein kinase 32C (Homo sapiens) (UniProt Q86UX6). Put plainly: Inhibition of recombinant human full length STK32C assessed as residual activity at 10 uM using casein as substrate incubated for 40 mins in presence of [gamma33P]ATP by scintillation counting based radiometry assay relative to control.
The target of assay [16] is Tau-tubulin kinase 2 (Homo sapiens) (UniProt Q6IQ55). Put plainly: Inhibition of recombinant human TTBK2 (1 to 331 residues) assessed as residual activity at 10 uM using casein as substrate incubated for 40 mins in presence of [gamma33P]ATP by scintillation counting based radiometry assay relative to control.
The species entered for assay [17] is Homo sapiens. Briefly: Inhibition of recombinant human full length PI3K p110/p85 assessed as residual activity at 10 uM using phosphatidylinositol-4, 5-bisphosphate as substrate measured after 40 mins by fluorescence assay relative to control.
The species named for assay [18] is Homo sapiens. Put plainly: Inhibition of recombinant human full length PI3K p120gamma R459Q mutant assessed as residual activity at 10 uM using phosphatidylinositol-4, 5-bisphosphate as substrate incubated for 40 mins in presence of [gamma33P]ATP by scintillation counting based radiometry assay relative to control.
The species named for assay [19] is Mus musculus. Briefly: Inhibition of recombinant full length mouse PI3K p110/p65 assessed as residual activity at 10 uM using phosphatidylinositol-4, 5-bisphosphate as substrate incubated for 40 mins in presence of [gamma33P]ATP by scintillation counting based radiometry assay relative to control.
The species named for assay [20] is Mus musculus. Briefly: Inhibition of recombinant full-length mouse PI3K p110/p85 E542K mutant assessed as residual activity at 10 uM using phosphatidylinositol-4, 5-bisphosphate as substrate incubated for 40 mins in presence of [gamma33P]ATP by scintillation counting based radiometry assay relative to control.
Assay [21] has as its target Phosphatidylinositol 4-phosphate 3-kinase C2 domain-containing subunit alpha (Homo sapiens) (UniProt O00443). Put plainly: Inhibition of recombinant human PI3KC2alpha (299 to end residues) assessed as residual activity at 10 uM using phosphatidylinositol as substrate incubated for 40 mins in presence of [gamma33P]ATP by scintillation counting based radiometry assay relative to control.

Each structure is given as a SMILES string.

Serine/threonine-protein kinase 32C (Homo sapiens), sequence (Q86UX6 whole entry, the tested form may be a part): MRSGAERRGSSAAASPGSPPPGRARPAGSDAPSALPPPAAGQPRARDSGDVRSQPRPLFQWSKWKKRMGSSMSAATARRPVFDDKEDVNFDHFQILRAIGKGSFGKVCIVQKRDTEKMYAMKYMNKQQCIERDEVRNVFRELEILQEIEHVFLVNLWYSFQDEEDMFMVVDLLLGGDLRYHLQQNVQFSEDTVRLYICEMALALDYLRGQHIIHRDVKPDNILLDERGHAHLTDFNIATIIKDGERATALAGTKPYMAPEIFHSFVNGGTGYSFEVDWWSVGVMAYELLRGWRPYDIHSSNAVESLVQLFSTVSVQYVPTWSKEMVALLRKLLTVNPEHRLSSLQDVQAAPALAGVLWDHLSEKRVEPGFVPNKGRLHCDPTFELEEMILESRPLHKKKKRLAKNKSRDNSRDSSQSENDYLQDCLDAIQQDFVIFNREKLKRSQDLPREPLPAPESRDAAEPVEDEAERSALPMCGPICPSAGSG
Serine/threonine-protein kinase PAK 6 (Homo sapiens), sequence (Q9NQU5 whole entry, looked up): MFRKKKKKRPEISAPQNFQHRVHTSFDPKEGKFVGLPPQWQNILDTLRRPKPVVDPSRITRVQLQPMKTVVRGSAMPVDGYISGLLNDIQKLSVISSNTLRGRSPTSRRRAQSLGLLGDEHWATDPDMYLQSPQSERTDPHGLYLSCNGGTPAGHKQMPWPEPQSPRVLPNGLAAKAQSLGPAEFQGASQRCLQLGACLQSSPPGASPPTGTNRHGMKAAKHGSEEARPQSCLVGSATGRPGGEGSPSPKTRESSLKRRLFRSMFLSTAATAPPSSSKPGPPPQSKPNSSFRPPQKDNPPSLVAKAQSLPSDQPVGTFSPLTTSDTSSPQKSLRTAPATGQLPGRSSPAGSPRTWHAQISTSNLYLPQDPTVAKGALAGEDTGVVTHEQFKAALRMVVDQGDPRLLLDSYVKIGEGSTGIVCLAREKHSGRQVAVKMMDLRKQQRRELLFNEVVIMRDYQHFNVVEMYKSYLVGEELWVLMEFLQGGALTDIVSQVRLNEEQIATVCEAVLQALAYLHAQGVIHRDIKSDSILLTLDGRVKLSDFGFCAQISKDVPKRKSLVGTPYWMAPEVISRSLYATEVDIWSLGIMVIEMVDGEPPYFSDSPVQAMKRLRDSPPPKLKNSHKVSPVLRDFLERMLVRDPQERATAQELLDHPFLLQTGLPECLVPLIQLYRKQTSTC
5'-AMP-activated protein kinase catalytic subunit alpha-2 (Homo sapiens), sequence (P54646 whole entry, looked up): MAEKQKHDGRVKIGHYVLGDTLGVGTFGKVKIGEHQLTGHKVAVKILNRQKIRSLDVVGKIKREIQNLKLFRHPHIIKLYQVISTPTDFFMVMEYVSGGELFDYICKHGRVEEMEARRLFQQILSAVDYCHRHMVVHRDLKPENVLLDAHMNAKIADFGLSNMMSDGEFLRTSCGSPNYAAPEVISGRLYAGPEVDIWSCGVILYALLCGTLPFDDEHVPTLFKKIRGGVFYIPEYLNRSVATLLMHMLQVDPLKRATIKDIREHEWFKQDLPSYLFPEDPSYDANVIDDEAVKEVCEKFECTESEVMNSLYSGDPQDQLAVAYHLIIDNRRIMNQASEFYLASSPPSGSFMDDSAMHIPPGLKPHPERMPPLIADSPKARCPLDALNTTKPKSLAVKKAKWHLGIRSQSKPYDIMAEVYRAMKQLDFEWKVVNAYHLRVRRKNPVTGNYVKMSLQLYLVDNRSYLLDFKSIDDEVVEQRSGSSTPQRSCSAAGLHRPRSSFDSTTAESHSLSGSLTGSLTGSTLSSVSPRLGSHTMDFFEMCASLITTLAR
Tau-tubulin kinase 2 (Homo sapiens), sequence (Q6IQ55 whole entry, the tested form may be a part): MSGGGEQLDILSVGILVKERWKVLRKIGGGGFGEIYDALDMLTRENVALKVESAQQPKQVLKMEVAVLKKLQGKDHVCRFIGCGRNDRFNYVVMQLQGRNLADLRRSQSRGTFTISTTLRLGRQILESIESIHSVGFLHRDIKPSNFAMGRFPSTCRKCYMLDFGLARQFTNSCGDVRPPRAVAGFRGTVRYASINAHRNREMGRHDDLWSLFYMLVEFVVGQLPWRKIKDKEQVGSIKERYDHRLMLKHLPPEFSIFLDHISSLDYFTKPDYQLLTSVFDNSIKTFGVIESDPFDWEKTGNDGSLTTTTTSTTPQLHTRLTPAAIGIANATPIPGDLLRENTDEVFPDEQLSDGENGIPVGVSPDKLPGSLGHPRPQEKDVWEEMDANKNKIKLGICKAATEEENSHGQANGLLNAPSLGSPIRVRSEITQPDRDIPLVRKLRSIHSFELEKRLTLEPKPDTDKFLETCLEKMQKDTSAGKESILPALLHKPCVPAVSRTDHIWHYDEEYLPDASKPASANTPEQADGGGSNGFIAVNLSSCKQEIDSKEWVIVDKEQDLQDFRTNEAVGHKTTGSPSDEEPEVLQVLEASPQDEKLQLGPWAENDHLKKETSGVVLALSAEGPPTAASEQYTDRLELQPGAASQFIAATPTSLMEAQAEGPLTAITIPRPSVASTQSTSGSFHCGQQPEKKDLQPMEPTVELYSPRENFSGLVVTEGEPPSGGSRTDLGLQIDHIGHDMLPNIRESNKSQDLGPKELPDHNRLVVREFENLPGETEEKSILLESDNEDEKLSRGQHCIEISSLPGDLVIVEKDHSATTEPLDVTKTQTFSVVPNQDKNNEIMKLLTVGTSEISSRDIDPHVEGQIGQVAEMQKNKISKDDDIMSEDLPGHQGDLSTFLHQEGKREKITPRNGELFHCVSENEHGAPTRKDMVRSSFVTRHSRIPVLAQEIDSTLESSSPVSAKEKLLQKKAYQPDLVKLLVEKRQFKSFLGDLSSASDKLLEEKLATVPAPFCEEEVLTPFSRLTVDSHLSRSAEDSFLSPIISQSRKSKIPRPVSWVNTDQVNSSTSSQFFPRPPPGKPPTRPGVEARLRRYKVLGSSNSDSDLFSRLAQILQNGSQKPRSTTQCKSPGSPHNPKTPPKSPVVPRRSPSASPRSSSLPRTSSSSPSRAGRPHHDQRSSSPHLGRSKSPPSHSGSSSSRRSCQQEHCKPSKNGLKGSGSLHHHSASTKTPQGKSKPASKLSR
Aurora kinase C (Homo sapiens), sequence (Q9UQB9 whole entry): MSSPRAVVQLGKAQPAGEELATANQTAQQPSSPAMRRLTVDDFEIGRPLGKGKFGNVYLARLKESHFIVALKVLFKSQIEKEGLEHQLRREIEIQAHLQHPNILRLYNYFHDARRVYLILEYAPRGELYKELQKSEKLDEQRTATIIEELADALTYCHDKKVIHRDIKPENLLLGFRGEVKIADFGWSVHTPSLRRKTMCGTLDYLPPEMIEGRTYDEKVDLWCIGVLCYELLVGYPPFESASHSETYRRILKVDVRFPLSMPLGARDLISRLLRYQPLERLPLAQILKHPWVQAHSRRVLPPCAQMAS
Serine/threonine-protein kinase PLK1 (Homo sapiens), sequence (P53350 whole entry): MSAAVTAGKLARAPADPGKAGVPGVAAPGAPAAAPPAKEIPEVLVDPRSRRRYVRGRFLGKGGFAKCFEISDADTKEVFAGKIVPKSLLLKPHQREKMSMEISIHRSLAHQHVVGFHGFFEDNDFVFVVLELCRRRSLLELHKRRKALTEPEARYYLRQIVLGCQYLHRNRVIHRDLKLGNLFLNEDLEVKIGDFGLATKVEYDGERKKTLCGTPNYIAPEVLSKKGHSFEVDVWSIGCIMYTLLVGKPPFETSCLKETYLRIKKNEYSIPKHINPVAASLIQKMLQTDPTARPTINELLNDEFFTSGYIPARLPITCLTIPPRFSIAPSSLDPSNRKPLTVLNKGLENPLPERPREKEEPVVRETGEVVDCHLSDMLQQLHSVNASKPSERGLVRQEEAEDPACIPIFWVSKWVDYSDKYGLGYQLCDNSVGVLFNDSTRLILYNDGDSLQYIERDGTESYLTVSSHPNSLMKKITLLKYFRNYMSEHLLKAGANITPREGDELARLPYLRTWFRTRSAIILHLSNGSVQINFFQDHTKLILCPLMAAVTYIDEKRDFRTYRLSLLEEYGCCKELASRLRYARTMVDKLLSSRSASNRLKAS
Tyrosine-protein kinase ABL1 (Homo sapiens), sequence (P00519 whole entry): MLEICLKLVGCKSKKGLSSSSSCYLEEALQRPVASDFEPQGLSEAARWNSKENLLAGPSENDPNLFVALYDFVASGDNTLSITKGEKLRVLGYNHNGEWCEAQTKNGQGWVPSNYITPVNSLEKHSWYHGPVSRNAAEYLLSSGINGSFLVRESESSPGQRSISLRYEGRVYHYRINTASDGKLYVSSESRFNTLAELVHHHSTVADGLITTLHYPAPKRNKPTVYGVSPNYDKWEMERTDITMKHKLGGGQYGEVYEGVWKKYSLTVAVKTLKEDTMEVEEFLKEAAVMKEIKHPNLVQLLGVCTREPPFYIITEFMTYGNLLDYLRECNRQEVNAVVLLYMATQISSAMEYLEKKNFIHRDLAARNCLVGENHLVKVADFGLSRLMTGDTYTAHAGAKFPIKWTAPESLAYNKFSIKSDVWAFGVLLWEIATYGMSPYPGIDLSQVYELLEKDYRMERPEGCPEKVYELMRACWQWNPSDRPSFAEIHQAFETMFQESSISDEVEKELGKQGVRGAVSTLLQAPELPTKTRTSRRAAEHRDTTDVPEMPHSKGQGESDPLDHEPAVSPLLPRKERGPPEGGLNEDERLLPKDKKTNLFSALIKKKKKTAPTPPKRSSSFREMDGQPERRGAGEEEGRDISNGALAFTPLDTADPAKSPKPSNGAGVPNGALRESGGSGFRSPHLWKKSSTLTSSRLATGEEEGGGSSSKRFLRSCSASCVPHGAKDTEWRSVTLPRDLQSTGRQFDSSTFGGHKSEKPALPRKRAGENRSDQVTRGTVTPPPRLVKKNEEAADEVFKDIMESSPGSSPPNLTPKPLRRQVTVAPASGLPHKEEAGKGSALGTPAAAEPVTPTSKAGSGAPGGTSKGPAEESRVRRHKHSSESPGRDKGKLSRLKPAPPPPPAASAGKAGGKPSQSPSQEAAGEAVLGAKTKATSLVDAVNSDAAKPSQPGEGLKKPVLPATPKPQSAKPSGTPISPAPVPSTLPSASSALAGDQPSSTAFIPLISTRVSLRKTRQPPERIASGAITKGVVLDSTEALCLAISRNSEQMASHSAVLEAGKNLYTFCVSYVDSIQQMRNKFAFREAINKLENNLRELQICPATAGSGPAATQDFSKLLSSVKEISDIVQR

`C[C@@H](c1ccccc1)n1nnc2cnc3ccc(-c4cnc5[nH]ccc5c4)cc3c21`: the Activity in assay [1] was -4%; in [2], 35%; in assay [3] it was 68%; in [4], 57%; in [5], 93%; in [6], 21%. The Activity in assay [7] is 73%; in [8], 70%; in assay [9] it was 79%; in assay [10], 90%; in assay [11] it was 74%; in assay [12], 105%. For the same compound, the Activity was 97% in assay [13]; 30% in [14]; 91% in [15]; 87% in [16]; 3 to 9% in the assay filed under Homo sapiens [17]; 16% in the assay filed under Homo sapiens [18]. Also, the Activity is 14% in the assay filed under Mus musculus [19], -1% in the assay filed under Mus musculus [20] and -60 to 66% in assay [21].

(Values after ChEMBL document CHEMBL4334471, “Discovery of 1,8-disubstituted-[1,2,3]triazolo[4,5-c]quinoline derivatives as a new class of Hippo signaling pathway inhibitors” (Bioorg Med Chem Lett, 2019).)
